Test results from ChEMBL document CHEMBL2203036, “Discovery of 1-[2-(2,4-dimethylphenylsulfanyl)phenyl]piperazine (Lu AA21004): a novel multimodal compound for the treatment of major depressive disorder” (J Med Chem, 2011).

Legend:
[1] = target: T1, 5-hydroxytryptamine receptor 1A (Homo sapiens, UniProt P08908); assay: biochemical; type: cell-based, HEK293
T1 sequence (P08908 whole entry): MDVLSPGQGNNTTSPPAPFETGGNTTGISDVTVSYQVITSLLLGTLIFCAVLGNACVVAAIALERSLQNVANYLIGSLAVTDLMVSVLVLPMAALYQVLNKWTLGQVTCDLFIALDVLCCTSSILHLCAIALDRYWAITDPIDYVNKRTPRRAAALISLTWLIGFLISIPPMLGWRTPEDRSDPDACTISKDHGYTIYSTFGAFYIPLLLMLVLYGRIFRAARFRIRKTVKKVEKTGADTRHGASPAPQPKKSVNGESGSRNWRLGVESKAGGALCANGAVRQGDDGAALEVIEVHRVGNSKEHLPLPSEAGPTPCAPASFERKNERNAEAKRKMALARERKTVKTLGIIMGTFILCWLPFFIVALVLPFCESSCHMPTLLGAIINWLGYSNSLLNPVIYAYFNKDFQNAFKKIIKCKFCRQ
Description: Displacement of [3H]5-carboxamidotryptamine to human 5HT1A expressed in HEK293 cells by filter binding assay

[2] = target: Sodium-dependent serotonin transporter (Rattus norvegicus, UniProt P31652); assay: Inhibition of SERT-mediated [3H]5HT uptake in rat synaptosomes by scintillation counting; type: subcellular, Brain
[3] = target: T2, 5-hydroxytryptamine receptor 3A (Homo sapiens, UniProt P46098); assay: Displacement of [3H]granisetron from human 5HT3A receptor expressed in HEK293 cells by filter binding assay; type: cell-based
T2 sequence (P46098 whole entry): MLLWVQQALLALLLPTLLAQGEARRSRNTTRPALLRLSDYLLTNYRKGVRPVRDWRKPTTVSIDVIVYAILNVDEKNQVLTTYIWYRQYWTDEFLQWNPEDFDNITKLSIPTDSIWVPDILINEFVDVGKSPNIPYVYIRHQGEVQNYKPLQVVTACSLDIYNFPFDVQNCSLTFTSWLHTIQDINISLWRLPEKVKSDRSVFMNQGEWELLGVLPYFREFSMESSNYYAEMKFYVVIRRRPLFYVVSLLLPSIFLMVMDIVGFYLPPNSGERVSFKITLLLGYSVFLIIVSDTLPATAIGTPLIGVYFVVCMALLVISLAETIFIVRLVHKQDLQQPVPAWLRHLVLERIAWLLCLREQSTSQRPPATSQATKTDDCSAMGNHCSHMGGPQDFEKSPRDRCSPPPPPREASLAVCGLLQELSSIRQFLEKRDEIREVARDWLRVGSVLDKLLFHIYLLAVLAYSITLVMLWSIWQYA

[4] = target: T3, Cytochrome P450 1A2 (Homo sapiens, UniProt P05177); assay: Inhibition of human recombinant CYP1A2 using 7-ethoxy-3-cyanocoumarin after 28 mins by fluorescence spectrophotometric analysis; type: ADME
T3 sequence (P05177 whole entry): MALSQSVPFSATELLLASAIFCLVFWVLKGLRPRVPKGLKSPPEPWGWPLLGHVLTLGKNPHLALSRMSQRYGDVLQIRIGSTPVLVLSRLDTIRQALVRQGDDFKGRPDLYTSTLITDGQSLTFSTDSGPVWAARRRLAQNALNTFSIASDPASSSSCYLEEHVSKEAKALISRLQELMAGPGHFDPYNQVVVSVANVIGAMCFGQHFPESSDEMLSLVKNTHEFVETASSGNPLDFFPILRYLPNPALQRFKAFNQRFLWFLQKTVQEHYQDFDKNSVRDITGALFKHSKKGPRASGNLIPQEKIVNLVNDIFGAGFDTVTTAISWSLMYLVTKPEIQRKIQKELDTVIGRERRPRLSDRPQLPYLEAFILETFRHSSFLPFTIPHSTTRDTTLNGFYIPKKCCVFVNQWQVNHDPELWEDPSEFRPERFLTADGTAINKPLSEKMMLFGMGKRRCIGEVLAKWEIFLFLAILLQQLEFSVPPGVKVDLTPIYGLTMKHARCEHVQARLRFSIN

[5] = Inhibition of NET-mediated [3H]NE in rat synaptosomes by scintillation counting; type: subcellular, Brain
[6] = tested on: Liver microsomes; assay: Intrinsic clearance in rat liver microsomes at 1 uM after 60 mins by LC-MS/MS analysis; type: ADME, Microsome; details: 1 h
[7] = target: Cytochrome P450 3A4 (Homo sapiens, UniProt P08684); assay: Inhibition of human recombinant CYP3A4 using resorufin benzyl ether after 30 mins by fluorescence spectrophotometric analysis; type: ADME
[8] = tested on: Liver microsomes; assay: Intrinsic clearance in human liver microsomes at 1 uM after 60 mins by LC-MS/MS analysis; type: ADME, Microsome; details: 1 h
[9] = species on record: Rattus norvegicus; assay: Selectivity ratio of IC50 for NET to IC50 for SERT in rat synaptosomes; details: Brain
[10] = target: T4, Sodium-dependent dopamine transporter (Rattus norvegicus, UniProt P23977); assay: Inhibition of DAT-mediated [3H]DA in rat synaptosomes by scintillation counting; type: subcellular, Brain
[11] = species on record: Rattus norvegicus; assay: Selectivity ratio of IC50 for DAT to IC50 for SERT in rat synaptosomes; details: Brain
[12] = target: Cytochrome P450 2C9 (Homo sapiens, UniProt P11712); assay: Inhibition of human recombinant CYP2C9 using dibenzylfluorescein after 45 mins by fluorescence spectrophotometric analysis; type: ADME
[13] = target: Cytochrome P450 2D6 (Homo sapiens, UniProt P10635); assay: Inhibition of human recombinant CYP2D6 using 3-[2-(N,N-diethyl-N-methylamino)ethyl]-7-methoxy- 4-methylcoumarin after 45 mins by fluorescence spectrophotometric analysis; type: ADME
[14] = Oral bioavailability in rat at 2 mg/kg; type: ADME, organism-based; details: in vivo
[15] = species on record: Rattus norvegicus; assay: Selectivity ratio of IC50 for rat DAT to IC50 for SERT in rat synaptosomes; details: Brain
[16] = Inhibition of rat NET
[17] = target: T4, Sodium-dependent dopamine transporter; assay: Inhibition of rat DAT
[18] = tested on: Rattus norvegicus; assay: Hepatic clearance in rat at 1 mg/kg, iv; type: ADME, organism-based, Liver; parameters: dose 1 mg/kg, route intravenous; details: in vivo
[19] = species on record: Rattus norvegicus; assay: Selectivity ratio of IC50 for rat NET to IC50 for SERT in rat synaptosomes; details: Brain
[20] = tested on: Rattus norvegicus; assay: Antidepression activity in sc dosed Harlan rat assessed as increase in extracellular 5HT level in ventral hippocampus region measured up to 180 mins by microdialysis method relative to vehicle-treated control; type: functional
[21] = target: Alpha-1A adrenergic receptor (Rattus norvegicus, UniProt P43140); assay: Binding affinity to rat alpha1 adrenergic receptor
[22] = target: 5-hydroxytryptamine receptor 2C (Homo sapiens, UniProt P28335); assay: Binding affinity to human 5HT2C receptor
Sequence of 5-hydroxytryptamine receptor 2C (P28335 whole entry): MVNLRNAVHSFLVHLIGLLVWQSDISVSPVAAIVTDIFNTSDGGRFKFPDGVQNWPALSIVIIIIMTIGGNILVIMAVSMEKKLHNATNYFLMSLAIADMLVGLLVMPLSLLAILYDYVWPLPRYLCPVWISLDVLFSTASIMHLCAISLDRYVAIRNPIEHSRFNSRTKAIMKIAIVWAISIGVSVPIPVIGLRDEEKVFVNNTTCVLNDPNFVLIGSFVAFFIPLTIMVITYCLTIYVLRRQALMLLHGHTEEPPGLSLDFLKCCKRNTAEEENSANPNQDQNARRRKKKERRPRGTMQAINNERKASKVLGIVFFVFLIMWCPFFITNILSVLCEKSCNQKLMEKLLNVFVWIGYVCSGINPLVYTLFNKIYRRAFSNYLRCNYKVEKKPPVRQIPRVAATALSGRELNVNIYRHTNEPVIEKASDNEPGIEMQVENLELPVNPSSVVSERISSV

T4 sequence (P23977 whole entry): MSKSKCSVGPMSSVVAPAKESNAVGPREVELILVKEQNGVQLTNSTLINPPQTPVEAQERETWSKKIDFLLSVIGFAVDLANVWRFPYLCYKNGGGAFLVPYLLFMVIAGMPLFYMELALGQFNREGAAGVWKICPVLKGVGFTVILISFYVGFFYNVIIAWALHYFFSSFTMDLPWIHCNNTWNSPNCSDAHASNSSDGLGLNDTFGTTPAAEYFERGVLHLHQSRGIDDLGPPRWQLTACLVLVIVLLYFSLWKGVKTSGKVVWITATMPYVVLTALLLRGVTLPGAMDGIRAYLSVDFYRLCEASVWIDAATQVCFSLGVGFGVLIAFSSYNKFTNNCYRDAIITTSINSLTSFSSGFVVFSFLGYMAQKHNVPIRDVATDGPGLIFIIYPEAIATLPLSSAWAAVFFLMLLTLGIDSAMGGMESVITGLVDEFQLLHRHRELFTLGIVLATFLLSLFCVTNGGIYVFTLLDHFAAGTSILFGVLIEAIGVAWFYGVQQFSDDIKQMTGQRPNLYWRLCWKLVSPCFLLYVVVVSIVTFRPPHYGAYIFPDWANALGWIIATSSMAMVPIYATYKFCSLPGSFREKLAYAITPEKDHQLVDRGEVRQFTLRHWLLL
Sequence of Cytochrome P450 2D6 (P10635 whole entry): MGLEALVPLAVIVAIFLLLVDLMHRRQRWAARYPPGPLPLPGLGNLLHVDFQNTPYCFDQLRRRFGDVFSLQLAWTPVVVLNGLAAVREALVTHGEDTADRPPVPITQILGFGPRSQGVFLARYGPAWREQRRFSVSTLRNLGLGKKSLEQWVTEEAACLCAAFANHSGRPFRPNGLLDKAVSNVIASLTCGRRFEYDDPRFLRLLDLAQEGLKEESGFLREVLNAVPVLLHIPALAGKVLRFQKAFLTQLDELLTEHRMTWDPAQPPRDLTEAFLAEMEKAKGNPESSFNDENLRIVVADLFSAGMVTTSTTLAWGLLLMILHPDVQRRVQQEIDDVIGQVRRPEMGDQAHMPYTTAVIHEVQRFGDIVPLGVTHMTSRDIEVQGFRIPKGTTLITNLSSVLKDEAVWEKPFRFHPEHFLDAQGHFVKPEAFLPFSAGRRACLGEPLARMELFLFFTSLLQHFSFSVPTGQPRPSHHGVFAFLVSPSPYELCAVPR
Sequence of Sodium-dependent serotonin transporter (P31652 whole entry): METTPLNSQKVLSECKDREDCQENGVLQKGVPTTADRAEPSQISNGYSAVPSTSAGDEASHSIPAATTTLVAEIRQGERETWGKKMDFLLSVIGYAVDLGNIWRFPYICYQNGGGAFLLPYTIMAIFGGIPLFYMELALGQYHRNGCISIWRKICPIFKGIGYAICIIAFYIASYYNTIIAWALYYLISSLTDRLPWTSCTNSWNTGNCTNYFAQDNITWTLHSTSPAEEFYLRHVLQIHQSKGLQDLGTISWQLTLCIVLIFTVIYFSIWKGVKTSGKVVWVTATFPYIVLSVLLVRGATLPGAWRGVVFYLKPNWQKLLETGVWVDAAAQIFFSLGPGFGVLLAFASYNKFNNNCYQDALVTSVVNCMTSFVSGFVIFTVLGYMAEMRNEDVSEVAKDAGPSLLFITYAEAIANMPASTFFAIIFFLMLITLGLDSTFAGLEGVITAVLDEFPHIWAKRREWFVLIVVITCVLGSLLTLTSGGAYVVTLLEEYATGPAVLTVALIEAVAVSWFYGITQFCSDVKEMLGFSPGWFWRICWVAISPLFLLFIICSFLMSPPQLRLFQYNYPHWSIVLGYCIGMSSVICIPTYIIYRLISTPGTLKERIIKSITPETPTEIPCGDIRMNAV
Sequence of Cytochrome P450 2C9 (P11712 whole entry): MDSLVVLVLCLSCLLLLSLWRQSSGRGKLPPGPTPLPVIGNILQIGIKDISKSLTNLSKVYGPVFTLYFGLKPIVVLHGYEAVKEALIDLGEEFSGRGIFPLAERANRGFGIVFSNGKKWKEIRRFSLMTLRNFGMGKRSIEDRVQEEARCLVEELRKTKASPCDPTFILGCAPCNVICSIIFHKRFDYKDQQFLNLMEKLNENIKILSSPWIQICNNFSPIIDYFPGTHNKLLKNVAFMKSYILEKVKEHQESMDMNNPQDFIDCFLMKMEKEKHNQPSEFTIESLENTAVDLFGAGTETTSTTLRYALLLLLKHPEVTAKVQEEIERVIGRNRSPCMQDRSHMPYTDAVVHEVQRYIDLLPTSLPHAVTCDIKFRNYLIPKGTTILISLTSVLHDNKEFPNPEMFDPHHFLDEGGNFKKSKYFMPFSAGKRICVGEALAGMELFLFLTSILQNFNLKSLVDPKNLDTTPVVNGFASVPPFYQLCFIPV
Sequence of Cytochrome P450 3A4 (P08684 whole entry): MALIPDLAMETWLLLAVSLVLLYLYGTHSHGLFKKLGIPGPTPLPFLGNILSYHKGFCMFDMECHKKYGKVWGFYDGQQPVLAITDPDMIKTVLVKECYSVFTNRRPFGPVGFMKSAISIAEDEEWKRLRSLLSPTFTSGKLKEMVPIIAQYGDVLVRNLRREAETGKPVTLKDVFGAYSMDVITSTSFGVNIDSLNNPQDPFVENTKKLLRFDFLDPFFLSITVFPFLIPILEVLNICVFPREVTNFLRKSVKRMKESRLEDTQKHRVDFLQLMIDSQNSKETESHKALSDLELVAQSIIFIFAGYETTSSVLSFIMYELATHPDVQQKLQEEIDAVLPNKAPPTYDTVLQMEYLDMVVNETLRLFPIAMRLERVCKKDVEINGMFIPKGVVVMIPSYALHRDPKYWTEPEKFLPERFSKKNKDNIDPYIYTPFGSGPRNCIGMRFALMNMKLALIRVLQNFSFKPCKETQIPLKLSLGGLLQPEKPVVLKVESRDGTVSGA
Sequence of Alpha-1A adrenergic receptor (P43140 whole entry): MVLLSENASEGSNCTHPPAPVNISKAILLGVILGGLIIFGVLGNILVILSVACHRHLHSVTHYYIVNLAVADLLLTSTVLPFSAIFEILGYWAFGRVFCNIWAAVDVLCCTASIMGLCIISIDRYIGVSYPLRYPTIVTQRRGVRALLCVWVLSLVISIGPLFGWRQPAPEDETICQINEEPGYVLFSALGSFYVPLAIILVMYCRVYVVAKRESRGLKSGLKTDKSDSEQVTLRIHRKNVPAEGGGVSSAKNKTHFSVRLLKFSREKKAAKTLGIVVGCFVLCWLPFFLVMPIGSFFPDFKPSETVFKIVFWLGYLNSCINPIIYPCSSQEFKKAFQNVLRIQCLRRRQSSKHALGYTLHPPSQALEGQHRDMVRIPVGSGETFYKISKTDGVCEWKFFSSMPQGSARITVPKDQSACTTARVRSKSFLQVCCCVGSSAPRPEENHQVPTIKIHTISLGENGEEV

| Structure (SMILES) | Ki [1] | IC50 [2] | Ki [3] | other results |
| --- | --- | --- | --- | --- |
| Cc1ccc(Oc2ccccc2N2CCNCC2)c(C)c1 | 65 nM | 250 nM | 270 nM | – |
| Cl.Clc1ccc(Sc2ccccc2N2CCNCC2)cc1 | 69 nM | 13 nM | 36 nM | bioavailability [14]: 26%; IC50 [4]: 53000 nM; IC50 [5]: 160 nM; Ratio IC50 [15]: 3.5; CLH [6]: 70 mL/min; IC50 [7]: 6800 nM; IC50 [16]: 190 nM; CLH [8]: 0.6 L/min; IC50 [17]: 45 nM; Ratio IC50 [9]: 12; IC50 [10]: 37 nM; Ratio IC50 [11]: 2.8; CLH [18]: 96.7 mL/min/kg; IC50 [12]: 31000 nM; IC50 [13]: 400 nM; Ratio IC50 [19]: 15 |
| Cc1ccccc1Sc1ccccc1N1CCNCC1 | 14 nM | 51 nM | 32 nM | – |
| Cc1cccc(Sc2ccccc2N2CCNCC2)c1 | 100 nM | 54 nM | 64 nM | – |
| Cc1ccc(Sc2ccccc2)c(N2CCNCC2)c1 | 1100 nM | 150 nM | 310 nM | – |
| COc1cc(C)ccc1Sc1ccccc1N1CCNCC1 | 210 nM | 11 nM | 17 nM | – |
| CN(C)CCC[C@@]1(c2ccc(F)cc2)OCc2cc(C#N)ccc21 [ESCITALOPRAM] | – | – | – | Activity [20]: 700% |
| Fc1ccc(Sc2ccccc2N2CCNCC2)cc1 | 39 nM | 67 nM | 53 nM | – |
| Cc1ccc(Sc2cccc(C)c2N2CCNCC2)c(C)c1 | 420 nM | 44 nM | 160 nM | – |
| Cc1ccc(Sc2cc(C)ccc2N2CCNCC2)c(C)c1 | – | 200 nM | 45 nM | – |
| COc1ccccc1Sc1ccccc1N1CCNCC1 | 59 nM | 330 nM | 52 nM | – |
| Cc1ccc(Sc2ccc(C)cc2N2CCNCC2)c(C)c1 | – | 25 nM | 150 nM | – |
| Clc1cccc(Sc2ccccc2N2CCNCC2)c1Cl | – | – | – | Ratio IC50 [9]: 7; Ratio IC50 [11]: 1; IC50 [12]: 40000 nM |
| Cc1ccc(Sc2ccccc2N2CCNCC2)cc1.Cl | 44 nM | 18 nM | 56 nM | IC50 [4]: 40000 nM; IC50 [5]: 460 nM; CLH [6]: 260 mL/min; IC50 [7]: 16000 nM; CLH [8]: 1.1 L/min; Ratio IC50 [9]: 25; IC50 [10]: 110 nM; Ratio IC50 [11]: 6.1; IC50 [12]: 40000 nM; IC50 [13]: 2700 nM |
| Cc1ccc(Sc2ccccc2N2CCCNCC2)c(C)c1 | – | 130 nM | 27 nM | – |
| Cc1ccc(Sc2ccc(C)cc2N2CCNCC2)cc1 | 2800 nM | 20 nM | 260 nM | – |
| COc1cccc(Sc2ccccc2N2CCNCC2)c1OC | – | 37 nM | – | – |
| CC(C)(C)c1ccc(Sc2ccccc2N2CCNCC2)cc1 | 2500 nM | 2100 nM | 450 nM | – |
| Cc1ccc(Sc2ccccc2N2CCN(C)CC2)c(C)c1 | 120 nM | 680 nM | 130 nM | – |
| COc1ccc(Sc2ccccc2N2CCNCC2)cc1OC | 160 nM | 15 nM | 86 nM | – |
| O=C1CC2(CCCC2)CC(=O)N1CCCCN1CCN(c2ncccn2)CC1 [BUSPIRONE] | – | – | > 10000 nM | – |
| c1ccc(Sc2ccccc2N2CCNCC2)cc1 | 30 nM | 390 nM | 64 nM | – |
| Cc1ccc(Sc2ccc(F)cc2)c(N2CCNCC2)c1 | 1100 nM | 68 nM | 440 nM | – |
| COc1cccc(Sc2ccccc2N2CCNCC2)c1 | 140 nM | 53 nM | 62 nM | – |
| Cc1ccc(Sc2c(C)cccc2N2CCNCC2)c(C)c1 | 540 nM | 540 nM | 670 nM | – |

Further compounds by falling IC50 [2], results first:

| Ki [1] | IC50 [2] | Ki [3] | Structure (SMILES) | other results |
| --- | --- | --- | --- | --- |
| 78 nM | 9.7 nM | 7.3 nM | Cc1ccc(Sc2ccccc2N2CCNCC2)c(Cl)c1.Cl | IC50 [4]: 34000 nM; IC50 [5]: 340 nM; CLH [6]: 120 mL/min; IC50 [7]: 5500 nM; CLH [8]: 0.6 L/min; Ratio IC50 [9]: 35; IC50 [10]: 320 nM; Ratio IC50 [11]: 33; IC50 [12]: 40000 nM; IC50 [13]: 1500 nM |
| 2500 nM | 9.5 nM | 500 nM | Cc1ccc(Sc2ccc(Cl)cc2)c(N2CCNCC2)c1 | – |
| 130 nM | 8 nM | 36 nM | COc1ccc(Sc2ccccc2N2CCNCC2)cc1 | – |
| 4000 nM | 7.9 nM | 190 nM | COc1ccc(Sc2ccc(C)cc2N2CCNCC2)cc1 | Ki [21]: < 100 nM; Ki [22]: < 100 nM |
| 330 nM | 7.6 nM | 32 nM | COc1ccc(Sc2ccccc2N2CCNCC2)c(OC)c1 | – |
| 240 nM | 6.9 nM | 140 nM | FC(F)(F)c1ccc(Sc2ccccc2N2CCNCC2)cc1 | – |
| 53 nM | 5.8 nM | 33 nM | Cc1ccc(Sc2ccccc2N2CCNCC2)cc1C.Cl | IC50 [4]: 26000 nM; IC50 [5]: 880 nM; CLH [6]: 290 mL/min; IC50 [7]: 11000 nM; CLH [8]: 0.5 L/min; Ratio IC50 [9]: 150; IC50 [10]: 120 nM; Ratio IC50 [11]: 21; IC50 [12]: 34000 nM; IC50 [13]: 2800 nM |
| 78 nM | 5.2 nM | 26 nM | Cl.Clc1ccc(Sc2ccccc2N2CCNCC2)c(Cl)c1 | IC50 [4]: 27000 nM; IC50 [5]: 120 nM; CLH [6]: 38 mL/min; IC50 [7]: 4400 nM; CLH [8]: 0.5 L/min; Ratio IC50 [9]: 23; IC50 [10]: 250 nM; Ratio IC50 [11]: 48; IC50 [12]: 34000 nM; IC50 [13]: 900 nM |
| 68 nM | 4.7 nM | 110 nM | Clc1ccc(Sc2ccccc2N2CCNCC2)cc1Cl | – |
| – | 4.4 nM | 29 nM | Cc1cccc(Sc2ccccc2N2CCNCC2)c1C | IC50 [4]: 24000 nM; Ratio IC50 [9]: 20; IC50 [10]: 170 nM; Ratio IC50 [11]: 38 |
| 94 nM | 4.3 nM | 12 nM | COc1ccc(Sc2ccccc2N2CCNCC2)c(Cl)c1 | – |
